This note sets out measurements from patent US20210246128A1, “BICYCLE TOPOISOMERASE I INHIBITING COMPOUNDS, PROCESS FOR PREPARATION AND USE THEREOF” (Council of Scientific & Industrial Research, priority 2018, published 2021).

Data set [1] concerns the target T1, recombinant human TopI (HTopI) (Homo sapiens, UniProt P11387).
T1 sequence (P11387 1-765): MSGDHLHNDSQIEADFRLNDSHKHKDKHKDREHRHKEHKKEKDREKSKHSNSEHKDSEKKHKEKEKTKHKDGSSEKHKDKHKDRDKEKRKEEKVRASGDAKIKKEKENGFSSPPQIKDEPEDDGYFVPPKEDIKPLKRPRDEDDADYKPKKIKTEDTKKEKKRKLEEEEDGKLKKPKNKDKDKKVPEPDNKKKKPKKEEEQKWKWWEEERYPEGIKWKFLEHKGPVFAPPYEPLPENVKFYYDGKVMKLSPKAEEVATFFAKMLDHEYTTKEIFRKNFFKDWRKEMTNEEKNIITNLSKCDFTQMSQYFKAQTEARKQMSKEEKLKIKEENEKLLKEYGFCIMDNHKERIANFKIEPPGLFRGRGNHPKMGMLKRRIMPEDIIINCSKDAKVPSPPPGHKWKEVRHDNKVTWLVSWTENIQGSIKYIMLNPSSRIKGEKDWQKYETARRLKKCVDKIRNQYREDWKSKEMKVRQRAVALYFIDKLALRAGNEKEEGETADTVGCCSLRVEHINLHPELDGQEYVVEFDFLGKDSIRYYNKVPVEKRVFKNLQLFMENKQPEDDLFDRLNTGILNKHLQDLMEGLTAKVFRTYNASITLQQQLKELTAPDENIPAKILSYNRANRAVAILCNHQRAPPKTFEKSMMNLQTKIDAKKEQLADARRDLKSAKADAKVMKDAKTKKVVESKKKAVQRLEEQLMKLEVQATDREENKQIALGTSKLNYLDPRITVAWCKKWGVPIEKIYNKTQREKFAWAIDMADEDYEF
Briefly: Gel based plasmid DNA relaxation assay with recombinant TopI (in vitro). The class given is biochemical. Particulars: recombinant human TopI, plasmid DNA relaxation. The protocol:
(§1) Human ToPI Inhibition in Plasmid DNA Relaxation Assays with Recombinant TopI (In Vitro) or MCF7 Cell Lysates (Ex Vivo)
(§2) Relaxation of supercoiled pBSSK(^+) DNA with recombinant human TopI (HTopI) at a molar ratio of 3:1 at 37° C. for 30 minutes was performed

For data set [2], the target named is T2, endogenous TopI from the whole cell extracts of human breast adenocarcinoma (MCF7) cell (Homo sapiens, UniProt P11387).
T2 construct: TopI enzyme in the extract is conserved in its native structure among a plethora of other cellular proteins; endogenous in cells; host or cells: MCF7 whole cell extract
T2 sequence (P11387 1-765): T1 sequence (P11387 1-765)
As to the kind of experiment: Plasmid DNA relaxation assay with MCF7 cell lysates (ex vivo). The class given is biochemical. To be noted: MCF7 cell lysates as source of TopI. How it is done: as §1, §2
cellular extracts were utilized as a source of TopI (ex vivo) in plasmid DNA relaxation assays. TopI enzyme in the extract is conserved in its native structure among a plethora of other cellular proteins.

The nature of data set [3]: Plasma stability assay. It counts as in vitro ADME. Particulars: pH 7.4, 37° C., 1 μM.

For orientation: IC50 means the midpoint of a concentration-inhibition curve. Take `Nc1ccc(-c2ccc3ncc(-c4nnco4)c(NCCCn4ccnc4)c3c2)cn1` [Compound 24, N-(3-(1H-imidazol-1-yl)propyl)-6-(6-aminopyridin-3-yl)-3-(1,3,4-oxadiazol-2-yl)quinolin-4-amine]: the 50% inhibitory concentration (IC50) was 21 nM in data set [1] and 1830 nM in data set [2]. In addition, in data set [3], the “Mean % remaining at 2 hrs in human Plasma” value is given as 84.18%.
